Data set [1] can be described thus: (§1) Pharmacokinetic parameters for Sildernafil following oral administration of Sildernafil citrate tablets (Viagra). It counts as ADME, organism-based. Conditions: human, in vivo, dosed compound id 36, dosed compound name SILDERNAFIL CITRATE, tissue Plasma.
In a further data set the test system is Homo sapiens. The data set is described as §1. Format: ADME, organism-based. Conditions: in vivo, po, dosed compound id 36, dosed compound name SILDERNAFIL CITRATE, tissue Plasma.

Here are results for one compound from ChEMBL document CHEMBL3832046, “DailyMed|setid=1da7847b-16e4-4bf1-957f-3894d023b339 | VIAGRA - sildenafil citrate tablet, film coated|PD-Rx Pharmaceuticals, Inc”.

Usually Tmax stands for the time at which the peak concentration occurs. Broadly, the bioavailability is the share of a dose that reaches the circulation, judged against a reference dose that is usually intravenous. Low readings indicate little systemic uptake, high ones much systemic uptake. With `CCCc1nn(C)c2c(=O)[nH]c(-c3cc(S(=O)(=O)N4CCN(C)CC4)ccc3OCC)nc12.O=C(O)CC(O)(CC(=O)O)C(=O)O` [SILDENAFIL CITRATE], the Tmax in data set [1] (dietary status Fasting) was found to be 1 h. Besides, the bioavailability in data set [1] worked out at 41%. In the data set with Homo sapiens, this compound had a Vss of 105 L.
